Data from patent US7723301B2, “Pharmaceutical compositions comprising an anti-teratogenic compound and applications of the same” (The Board of Trustees of the University of Arkansas, priority 2007, dated 2010).
Entries after “also recorded” stand apart in the source; their conditions may differ.

B1: Noggin: recombinant Noggin, an inhibitor of Bmp signaling (protein, UniProt P97466 28-232, looked up)
Noggin: QHYLHIRPAPSDNLPLVDLIEHPDPIFDPKEKDLNETLLRSLLGGHYDPGFMATSPPEDRPGGGGGPAGGAEDLAELDQLLRQRPSGAMPSEIKGLEFSEGLAQGKKQRLSKKLRRKLQMWLWSQTFCPVLYAWNDLGSRFWPRYVKVGSCFSKRSCSVPEGMVCKPSKSVHLTVLRWRCQRRGGQRCGWIPIQYPIISECKCSC

Columns and labels:
[1] = system: primary limb bud cells (PLBCs); experiment: Cell death by trypan blue staining in PLBCs; format: cell-based, chicken; conditions: for effect on juglone-induced cell death in PLBCs: pre-treatment for one hour, juglone 5 μM two hours; for effect on BMP4-induced PCD in PLBCs: rh BMP4 300 ng/ml; for effect on thalidomide-induced cell death in PLBCs: thalidomide 10 μg/ml, six hours
Method: (§1) Primary limb bud cells (PLBCs) were isolated from 60 pooled wing and hindlimb buds of HH stages 23/24 embryos. Fibroblasts were gained from HH stage 34 chicken embryos or from 13.5 d.p.c. mouse embryos. Human embryonic fibroblasts were provided by Matthias Maass (2). Before adding reagents, all cell types were cultured for 16 hours in D-MEM (Gibco) plus 10% fetal calf serum (FCS) and 2% chicken serum. Treatment with thalidomide, phthalimide, recombinant human (rh) BMP4 (300 ng/ml; R&D Systems), juglone (5 μM; Sigma), recombinant mouse Noggin (30, 300, 1000 ng/ml in FIG. 4B; 300 ng/ml in FIGS. 4C and 6A), anti-human-DKK1 antibody (35, 350 and 1000 ng/ml in FIG. 4B; 350 ng/ml in FIGS. 4C and 6A), LiCl (3, 30, 60 mM in FIG. 4B; 30 mM in FIGS. 4C, 6A and 6C) and/or (2Z,3E)-6-Bromoindirubin-3-oxime (BIO, Gsk3-Inhibitor IX; 50, 500, 1000 nM in FIG. 4B; 500 nM in FIG. 6A; 50 and 500 nM in FIG. 6C; Calbiochem) were performed in Optimem1 (Invitrogen) plus 1% FCS. Unless otherwise noted, all treatments with thalidomide and rh-BMP4 and associated controls were done for six hours. Inhibitors were applied once at the beginning of incubation with the exception of LiCl that was added 150 minutes before harvesting the cells for further analyses. Pre-treatment with phenyl-N-t-butylnitrone (PBN; 2 mM; Sigma) was performed for one hour. Incubations with juglone were performed for two hours, if applicable, after a pre-treatment with PBN, Noggin, anti-Dkk1 antibody, LiCl or Gsk3-Inhibitor IX for one hour.
(§2) Cell death in PLBCs, CEFs, MEFs and HEFs was detected by staining with trypan blue (0.1% (w/v) in PBS; Sigma) for 90 seconds. Cells were counted in a counting chamber to determine the ratio of dead to live cells.

[2] = system: human embryonic fibroblasts (HEFs); experiment: Cell death by trypan blue staining in HEFs; format: cell-based; conditions: for effect on thalidomide-induced cell death in HEFs: Noggin 300 ng/ml, anti-DKK1 antibody 350 ng/ml, LiCl 30 mM
Method: as §1, §2

[3] = system: primary chicken embryonic fibroblasts (CEFs); experiment: Cell death by trypan blue staining in CEFs; format: cell-based; conditions: data not shown
Method: as §1, §2

chicken embryos [4] = experiment: Inhibitors counteracting thalidomide-induced limb truncations and microphthalmia in chicken embryos; format: in vivo; conditions: for embryos with limb truncations, thalidomide-treated plus inhibitor: Noggin 100 ng/embryo or LiCl 0.6 mg/embryo at HH stages 17-19
Method: (§3) Fertilized eggs were purchased from Deindl GmbH, Rietberg-Varensell. They were incubated at 38° C. in a humidified incubator, windowed after one day and staged according to Hamburger and Hamilton (HH stage). Racemic thalidomide (Celgene), thalidomide enantiomers or phthalimide (Sigma) were dissolved in DMSO at 5 mg/ml and further diluted in PBS. Embryos were exposed to drugs by dropping 15 μg-3 mg thalidomide or phthalimide per kg egg weight (about 1-200 μg per embryo) in 50 μl DMSO/PBS as a single dose at HH stages 0-13 onto the embryo. Thalidomide (50 μg) or phthalimide (50 μg) in 10 μl DMSO was injected into the extra-embryonic blood vessels of HH 19 stage embryos. LiCl (99% pure, Sigma) was dissolved in sterile PBS. LiCl (0.1, 0.6 or 3.2 mg) was applied at HH stages 17-19 by dropping 500 μl of a 5 mM, 28 mM or 151 mM LiCl solution onto the embryo. Recombinant Noggin, Dkk1 specific goat IgG (R&D Systems) or serum of non-immunized goats (Sigma) was dissolved in 0.1% BSA/0.01% Fast Green/PBS. Noggin (10 or 100 ng), Dkk1 specific goat IgG (5 or 50 ng) or serum of non-immunized goats (50 ng) was applied to a single embryo at HH stages 17-19 by injecting a 10 μl solution through the extra-embryonic membranes.
(§4) The morphology of the limbs was studied in specimens fixed in 5% trichloroacetic acid and stained for cartilage with alcian green as described (3).

[5] = system: limb buds of HH stages 23/24 chicken embryos; experiment: Whole mount TUNEL staining of limb buds; format: in vivo; conditions: LiCl 0.6 mg per embryo at HH stages 17-19, 19 of 80
Method: TUNEL staining was performed as described (7).

[6] = system: Bmp4 and Dkk1 expression in PLBCs; experiment: sqRT-PCR of Bmp4 and Dkk1 expression in PLBCs; format: cell-based, chicken
Method: as §1
(§5) RNA isolation, semi-quantitative RT-PCRs and whole mount in situ hybridizations were performed according to standard protocols that are well known within the art. RNA was isolated using TRIZOL (Gibco BRL) followed by DNAseI digestion. First strand synthesis was carried out with the Expand RT System (Roche) according to the manufacturer's instructions. PCR amplification was carried out primers and conditions within the knowledge of a person having skill in the relevant art. Quantifications were performed using NIH Image 1.62.

[7] = system: Bmp4 and Dkk1 expression in HEFs; experiment: sqRT-PCR of Bmp4 and Dkk1 expression in HEFs; format: cell-based, human
Method: as §1, §5

chicken embryos [8] = experiment: Thalidomide-induced limb truncations and microphthalmia in chicken embryos; format: in vivo; conditions: applied to chicken embryos, control reagent
Method: as §3, with “LiCl (99% pure, Sigma) was dissolved in sterile PBS. LiCl (0.1, 0.6 or 3.2 mg) was applied at HH stages 17-19 by dropping 500 μl of a 5 mM, 28 mM or 151 mM LiCl solution onto the embryo.” left out
as §4

[9] = system: Dkk1 and Bmp expression in limb buds; experiment: sqRT-PCR and whole mount in situ hybridization of Dkk1 and Bmp expression in limb buds; format: in vivo, chicken; conditions: data not shown
Method: as §5

Wnt/β-catenin signaling = experiment: TOPflash luciferase reporter assay in CEFs; format: cell-based, chicken; conditions: Wnt3a-conditioned medium, 24 hours
Method: Plasmids with wild type (TOPflash) or mutated (FOPflash) LEF/TCF binding sites (5) upstream of a luciferase reporter gene were transiently transfected into CEFs using Lipofectamine (Invitrogen). Following transfection for 24 hours, the cells were exposed to Wnt3a-conditioned medium or to control medium (6) with or without thalidomide or recombinant human DKK1 (150 ng/ml, R&D Biosystems) for 24 hours prior to luciferase assay. Values were normalized for transfection efficiency by co-transfection with a pSV-β-galactosidase vector and for the number of living cells. Luciferase activity was measured using the Dual-Light System (Applied Biosystems).

Molecule	effect on juglone-induced cell death in PLBCs [1]	effect on BMP4-induced PCD in PLBCs [1]	effect on thalidomide-induced cell death in PLBCs [1]	effect on thalidomide-induced cell death in HEFs [2]	effect on thalidomide-induced cell death in CEFs [3]	embryos with limb truncations, thalidomide-treated plus inhibitor (chicken embryos [4]) [%]	other results
O=C1Nc2cc(Br)ccc2/C1=C1/Nc2ccccc2/C1=N\O [Gsk3-Inhibitor IX, (2Z,3E)-6-Bromoindirubin-3-oxime]	could be inhibited	counteracted BMP4-induced PCD in a dose-dependent manner	completely abrogate	–	–	–	–
[Cl-].[Li+] [LiCl]	could be inhibited	counteracted BMP4-induced PCD in a dose-dependent manner	completely abrogate	block thalidomide-induced cell death	block thalidomide-induced cell death	5	rescue of thalidomide-induced microphthalmia (chicken embryos [4]; 0.6 mg LiCl): did not rescue; embryos with thalidomide-induced microphthalmia plus LiCl (chicken embryos [4]; 3.2 mg LiCl per embryo): 9%; individual limb buds with enhanced PCD (TUNEL) in thalidomide-treated embryos given inhibitor [5]: 24%
CC(C)(C)[N+]([O-])=Cc1ccccc1 [PBN, phenyl-N-t-butylnitrone]	completely reduces; also recorded: could be inhibited	no significant effect; also recorded: did not influence	completely reduces; also recorded: completely inhibited	–	–	–	effect on up-regulation of Bmp4 and Dkk1 expression in thalidomide-treated PLBCs ([6]; pre-treatment with PBN, data not shown): abolishes the up-regulation; effect on up-regulation of Bmp4 and Dkk1 expression in thalidomide-treated HEFs ([7]; pre-treatment with PBN): abolishes the up-regulation
O=C1NC(=O)c2ccccc21 [phthalimide]	–	–	–	–	–	–	potential to induce PCD in HEFs [2]: did not induce PCD; limb or eye defects (chicken embryos [8]): did not cause limb or eye defects; expression of Bmp4 and Dkk1 in PLBCs ([6]; 10 μg/ml, six hours): did not influence the expression; Bmp and Dkk1 expression in limb buds [9]: not altered; expression of Bmp4 and Dkk1 in HEFs ([7]; 10 μg/ml, six hours): did not influence the expression; induction of PCD in PLBCs [1]: did not induce PCD
recombinant DKK1: recombinant human DKK1, positive control in the TOPflash assay	–	–	–	–	–	–	effect on Wnt3a-induced TOPflash activity (Wnt/β-catenin signaling): clearly counteracted
B1	could be inhibited	–	only a partial neutralization; also recorded: clearly reduced	block thalidomide-induced cell death	block thalidomide-induced cell death	5	–
